# Data as given in patent US20180334447A1, “2,3,4,5-TETRAHYDROPYRIDIN-6-AMINE DERIVATIVES” (JANSSEN PHARMACEUTICA NV, priority 2015, published 2018).
# Target: T1, recombinant BACE2 protein (Homo sapiens, UniProt Q9Y5Z0)
# T1 construct: recombinant BACE2 protein in a final concentration of 0.4 μg/ml
# T1 sequence (Q9Y5Z0 63-518): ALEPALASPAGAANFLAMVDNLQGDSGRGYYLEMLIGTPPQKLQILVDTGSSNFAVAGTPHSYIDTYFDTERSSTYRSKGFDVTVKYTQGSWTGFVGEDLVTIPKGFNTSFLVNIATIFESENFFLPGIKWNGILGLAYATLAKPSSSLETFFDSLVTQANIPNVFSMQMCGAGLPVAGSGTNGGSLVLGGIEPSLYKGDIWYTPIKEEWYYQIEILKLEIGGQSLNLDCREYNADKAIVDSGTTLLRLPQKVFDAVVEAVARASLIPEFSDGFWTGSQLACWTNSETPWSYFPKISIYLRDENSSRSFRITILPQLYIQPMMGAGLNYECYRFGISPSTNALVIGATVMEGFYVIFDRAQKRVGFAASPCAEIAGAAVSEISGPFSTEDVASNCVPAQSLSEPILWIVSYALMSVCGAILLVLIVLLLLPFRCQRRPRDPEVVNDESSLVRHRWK
# Assay: BACE2 biochemical FRET based assay
# Settings: BACE2, 450 minutes at room temperature, pH 5.0; read-out: Biochemical FRET based assay pIC50 (converted)
# Source text: (§1) This assay is a Fluorescence Resonance Energy Transfer Assay (FRET) based assay. The substrate for this assay contains the ‘Swedish’ Lys-Met/Asn-Leu mutation of the amyloid precursor protein (APP) beta-secretase cleavage site. This substrate also contains two fluorophores: (7-methoxycoumarin-4-yl) acetic acid (Mca) is a fluorescent donor with excitation wavelength at 320 nm and emission at 405 nm and 2,4-Dinitrophenyl (Dnp) is a proprietary quencher acceptor. […] Upon cleavage by the beta-secretase, the fluorophore Mca is separated from the quenching group Dnp, restoring the full fluorescence yield of the donor. The increase in fluorescence is linearly related to the rate of proteolysis.
# Briefly in a 384-well format recombinant BACE2 protein in a final concentration of 0.4 μg/ml is incubated for 450 minutes at room temperature with 10 μM substrate in incubation buffer (50 mM Citrate buffer pH 5.0, 0.05% PEG, no DMSO) in the absence or presence of compound. Next the amount of proteolysis is directly measured by fluorescence measurement at T=0 and T=450 (excitation at 320 nm and emission at 405 nm). Results are expressed in RFU (Relative Fluorescence Units), as difference between T450 and T0.
# (§2) A best-fit curve is fitted by a minimum sum of squares method to the plot of % Controlmin versus compound concentration. From this an IC50 value (inhibitory concentration causing 50% inhibition of activity) can be obtained.
row,Compound,IC50 [nM]
1,COc1cnc(C(=O)Nc2ccc(F)c([C@@]3(C)N=C(N)[C@](C)(C#N)C[C@]3(C)F)c2)cn1 [Compound 27],389
2,COc1cnc(C(=O)Nc2ccc(F)c([C@@]3(C)N=C(N)[C@@](C)(C#N)C[C@]3(C)F)c2)cn1 [Compound 28],> 10000
3,CC[C@]1(S(C)(=O)=O)CC[C@@](CF)(c2cc(NC(=O)c3ccc(F)cn3)ccc2F)N=C1N [Compound 29a],776
4,CCC1(S(=O)(=O)CC)CCC(CF)(c2cc(NC(=O)c3ccc(F)cn3)ccc2F)N=C1N (stereo not drawn) [Compound 30],24.5
5,CC1(S(C)(=O)=O)CCC(CF)(c2cc(NC(=O)c3cnc(OCC(F)F)cn3)ccc2F)N=C1N (stereo not drawn) [Compound 35],44.7
6,CC1(S(C)(=O)=O)CCC(CF)(c2cc(NC(=O)c3ncc(OC(F)F)cn3)ccc2F)N=C1N (stereo not drawn) [Compound 36],28.2
7,C[C@@]1(S(C)(=O)=O)CC[C@@](CF)(c2cc(NC(=O)c3cnc(OCF)cn3)ccc2F)N=C1N [Compound 41],16.6

# Test system: Abeta 1-42 produced and secreted into the medium of human neuroblastoma SKNBE2 cells
# Assay: Cellular αLisa assay in SKNBE2 cells, Abeta 42
# Type: cell-based
# Settings: Homo sapiens, SKNBE2, 18 h, SKNBE2 cells expressing hAPP695, incubated for 18 hours; read-out: Cellular αLisa assay in SKNBE2 cells Abeta 42 pIC50 (converted)
# Description: In two αLisa assays the levels of Abeta 1-42 produced and secreted into the medium of human neuroblastoma SKNBE2 cells are quantified. The assay is based on the human neuroblastoma SKNBE2 expressing the wild type Amyloid Precursor Protein (hAPP695). The compounds are diluted and added to these cells, incubated for 18 hours and then measurements of Abeta 1-42 are taken. Abeta 1-42 are measured by sandwich αLisa. αLisa is a sandwich assay using biotinylated antibody AbN/25 attached to streptavidin coated beads and antibody cAb42/26 conjugated acceptor beads for the detection of Abeta 1-42 respectively. In the presence of Abeta 1-42, the beads come into close proximity. The excitation of the donor beads provokes the release of singlet oxygen molecules that trigger a cascade of energy transfer in the acceptor beads, resulting in light emission. Light emission is measured after 1 hour incubation (excitation at […] and emission at 615 nm).
# as §2
row,Compound,IC50 [nM]
1,COc1cnc(C(=O)Nc2ccc(F)c([C@@]3(C)N=C(N)[C@](C)(C#N)C[C@]3(C)F)c2)cn1 [Compound 27],17.4
2,COc1cnc(C(=O)Nc2ccc(F)c([C@@]3(C)N=C(N)[C@@](C)(C#N)C[C@]3(C)F)c2)cn1 [Compound 28],550
3,CC[C@]1(S(C)(=O)=O)CC[C@@](CF)(c2cc(NC(=O)c3ccc(F)cn3)ccc2F)N=C1N [Compound 29a],851
4,CCC1(S(=O)(=O)CC)CCC(CF)(c2cc(NC(=O)c3ccc(F)cn3)ccc2F)N=C1N (stereo not drawn) [Compound 30],15.8
5,CC1(S(C)(=O)=O)CCC(CF)(c2cc(NC(=O)c3cnc(OCC(F)F)cn3)ccc2F)N=C1N (stereo not drawn) [Compound 35],3.09
6,CC1(S(C)(=O)=O)CCC(CF)(c2cc(NC(=O)c3ncc(OC(F)F)cn3)ccc2F)N=C1N (stereo not drawn) [Compound 36],4.37
7,C[C@@]1(S(C)(=O)=O)CC[C@@](CF)(c2cc(NC(=O)c3cnc(OCF)cn3)ccc2F)N=C1N [Compound 41],1.62

# Test system: Abeta 1-37, Abeta 1-38, Abeta 1-40 and Abeta 1-42 in CSF
# Assay: Pharmacology in the Beagle dog: beta-amyloid profile in cerebrospinal fluid (CSF) after a single dose
# Type: in vivo
# Settings: Canis lupus familiaris, single dose 0.16 mg/kg, 8 h post dosing, read-out: % Decrease in Abeta 1-42 at 8 h post dosing compared to own baseline
# Description: Test compounds were tested to evaluate the effect on the beta-amyloid profile in cerebrospinal fluid (CSF) of dogs after a single dose, in combination with pharmacokinetic (PK) follow up and limited safety evaluation.
# For each of compound 20, 21, 22 or 41, four beagle dogs (2 males, 2 females) were dosed with vehicle (1 ml/kg of an aqueous solution of 20% cyclodextrin) and 12 beagle dogs (2 males and 2 females per dosage group) were dosed with test compounds as follows:
# In the case of compounds 39, 33 and 31, two beagle dogs (1 male, 1 female) were dosed with vehicle (1 ml/kg of an aqueous solution of 20% cyclodextrin) and 4 beagle dogs (2 males and 2 females) were dosed with test compound […] (0.31 mg/kg in 0.31 mg/ml of an aqueous 20% cyclodextrin solution) on an empty stomach.
# Eight hours after dosing the animals got access to their regular meal for 30 minutes. Blood was taken for PK follow up (0.5, 1, 2, 4, 8, 25 and 49 hours) and serum samples for biochemistry were taken before and at 8 and 25 h after dosing. The CSF samples were used for measurement of Abeta 1-37, Abeta 1-38, Abeta 1-40 and Abeta 1-42.
row,Compound,inhibition in vivo at 0.16 mg/kg [%]
1,C[C@@]1(S(C)(=O)=O)CC[C@@](CF)(c2cc(NC(=O)c3cnc(OCF)cn3)ccc2F)N=C1N [Compound 41],71

# Same assay, conditions: Canis lupus familiaris, single dose 0.31 mg/kg, 8 h post dosing, read-out: % Decrease in Abeta 1-42 at 8 h post dosing compared to own baseline
row,Compound,inhibition in vivo at 0.31 mg/kg [%]
1,C[C@@]1(S(C)(=O)=O)CC[C@@](CF)(c2cc(NC(=O)c3cnc(OCF)cn3)ccc2F)N=C1N [Compound 41],78

# Same assay, conditions: Canis lupus familiaris, single dose 1.25 mg/kg, 8 h post dosing, read-out: % Decrease in Abeta 1-42 at 8 h post dosing compared to own baseline
row,Compound,inhibition in vivo at 1.25 mg/kg [%]
1,C[C@@]1(S(C)(=O)=O)CC[C@@](CF)(c2cc(NC(=O)c3cnc(OCF)cn3)ccc2F)N=C1N [Compound 41],89

# Same assay, conditions: single dose 0.16 mg/kg, 25 h post dosing (b)
row,Compound,% Decrease in Abeta 1-42 at 24 h^(a) or 25 h^(b) post dosing compared to own baseline
1,C[C@@]1(S(C)(=O)=O)CC[C@@](CF)(c2cc(NC(=O)c3cnc(OCF)cn3)ccc2F)N=C1N [Compound 41],26^(b) %

# Same assay, conditions: single dose 0.31 mg/kg, 25 h post dosing (b)
row,Compound,% Decrease in Abeta 1-42 at 24 h^(a) or 25 h^(b) post dosing compared to own baseline
1,C[C@@]1(S(C)(=O)=O)CC[C@@](CF)(c2cc(NC(=O)c3cnc(OCF)cn3)ccc2F)N=C1N [Compound 41],49^(b) %

# Same assay, conditions: single dose 1.25 mg/kg, 49 h post dosing
row,Compound,% Decrease in Abeta 1-42 at 49 h post dosing compared to own baseline [%]
1,C[C@@]1(S(C)(=O)=O)CC[C@@](CF)(c2cc(NC(=O)c3cnc(OCF)cn3)ccc2F)N=C1N [Compound 41],41

# Target: T2, recombinant BACE1 protein (Homo sapiens, UniProt P56817)
# T2 construct: recombinant BACE1 protein in a final concentration of 1 μg/ml
# Assay: BACE1 biochemical FRET based assay - Method 1
# Settings: BACE1, 120 minutes at room temperature, pH 5.0; read-out: Biochemical FRET based assay - Method 1 pIC50 (converted)
# Source text: as §1, with “this assay is an APP derived 13 amino acids peptide that contains the” for “this assay contains the”, “cleavage by BACE1, the fluorophore” for “cleavage by the beta-secretase, the fluorophore”
# Briefly in a 384-well format recombinant BACE1 protein in a final concentration of 1 μg/ml is incubated for 120 minutes at room temperature with 10 μm substrate in incubation buffer (40 mM Citrate buffer pH 5.0, 0.04% PEG, 4% DMSO) in the absence or presence of compound. Next the amount of proteolysis is directly measured by fluorescence measurement at T=0 and T=120 (excitation at 320 nm and emission at 405 nm). Results are expressed in RFU (Relative Fluorescence Units), as difference between T120 and T0.
# as §2
# T2 sequence (P56817 46-501): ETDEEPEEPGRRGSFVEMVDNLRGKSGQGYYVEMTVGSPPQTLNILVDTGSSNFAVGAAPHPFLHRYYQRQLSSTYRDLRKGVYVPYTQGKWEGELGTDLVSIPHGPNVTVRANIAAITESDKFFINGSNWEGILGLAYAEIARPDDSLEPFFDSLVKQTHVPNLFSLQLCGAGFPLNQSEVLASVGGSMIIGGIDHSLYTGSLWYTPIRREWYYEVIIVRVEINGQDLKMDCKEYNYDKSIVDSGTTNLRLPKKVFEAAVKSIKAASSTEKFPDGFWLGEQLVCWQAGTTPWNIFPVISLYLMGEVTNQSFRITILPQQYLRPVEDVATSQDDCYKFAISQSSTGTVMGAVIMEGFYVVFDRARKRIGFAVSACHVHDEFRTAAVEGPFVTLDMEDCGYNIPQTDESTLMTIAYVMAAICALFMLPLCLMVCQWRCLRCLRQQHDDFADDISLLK
row,Compound,IC50 [nM]
1,COc1cnc(C(=O)Nc2ccc(F)c([C@@]3(C)N=C(N)[C@](C)(C#N)C[C@]3(C)F)c2)cn1 [Compound 27],41.7
2,COc1cnc(C(=O)Nc2ccc(F)c([C@@]3(C)N=C(N)[C@@](C)(C#N)C[C@]3(C)F)c2)cn1 [Compound 28],1150
3,CC[C@]1(S(C)(=O)=O)CC[C@@](CF)(c2cc(NC(=O)c3ccc(F)cn3)ccc2F)N=C1N [Compound 29a],871
4,CCC1(S(=O)(=O)CC)CCC(CF)(c2cc(NC(=O)c3ccc(F)cn3)ccc2F)N=C1N (stereo not drawn) [Compound 30],15.8
5,CC1(S(C)(=O)=O)CCC(CF)(c2cc(NC(=O)c3cnc(OCC(F)F)cn3)ccc2F)N=C1N (stereo not drawn) [Compound 35],3.72
6,CC1(S(C)(=O)=O)CCC(CF)(c2cc(NC(=O)c3ncc(OC(F)F)cn3)ccc2F)N=C1N (stereo not drawn) [Compound 36],4.27
7,C[C@@]1(S(C)(=O)=O)CC[C@@](CF)(c2cc(NC(=O)c3cnc(OCF)cn3)ccc2F)N=C1N [Compound 41],2.19

# Test system: Abetatotal in human neuroblastoma SKNBE2 cells
# Assay: Cellular αLisa assay in SKNBE2 cells, Abetatotal
# Type: cell-based
# Settings: Homo sapiens, SKNBE2, 18 h, SKNBE2 cells expressing hAPP695, incubated for 18 hours; read-out: Cellular αLisa assay in SKNBE2 cells Abetatotal pIC50 (converted)
row,Compound,IC50 [nM]
1,COc1cnc(C(=O)Nc2ccc(F)c([C@@]3(C)N=C(N)[C@](C)(C#N)C[C@]3(C)F)c2)cn1 [Compound 27],16.2
2,COc1cnc(C(=O)Nc2ccc(F)c([C@@]3(C)N=C(N)[C@@](C)(C#N)C[C@]3(C)F)c2)cn1 [Compound 28],501
3,CC[C@]1(S(C)(=O)=O)CC[C@@](CF)(c2cc(NC(=O)c3ccc(F)cn3)ccc2F)N=C1N [Compound 29a],182
4,CCC1(S(=O)(=O)CC)CCC(CF)(c2cc(NC(=O)c3ccc(F)cn3)ccc2F)N=C1N (stereo not drawn) [Compound 30],13.5
5,CC1(S(C)(=O)=O)CCC(CF)(c2cc(NC(=O)c3cnc(OCC(F)F)cn3)ccc2F)N=C1N (stereo not drawn) [Compound 35],2.82
6,CC1(S(C)(=O)=O)CCC(CF)(c2cc(NC(=O)c3ncc(OC(F)F)cn3)ccc2F)N=C1N (stereo not drawn) [Compound 36],4.37
